Results on 18 compounds are retold here after patent publication US20230183239A1, “ECTONUCLEOTIDE PYROPHOSPHATASE-PHOSPHODIESTERASE 1 (ENPP-1) INHIBITORS AND USES THEREOF” (AbbVie Inc., priority 2017, published 2023).

Molecules are shown by their SMILES. pKi: −log10 of the molar value.

For this experiment, the target named is T1, ENPP1 (Homo sapiens, UniProt P22413).
T1 sequence (P22413 1-925): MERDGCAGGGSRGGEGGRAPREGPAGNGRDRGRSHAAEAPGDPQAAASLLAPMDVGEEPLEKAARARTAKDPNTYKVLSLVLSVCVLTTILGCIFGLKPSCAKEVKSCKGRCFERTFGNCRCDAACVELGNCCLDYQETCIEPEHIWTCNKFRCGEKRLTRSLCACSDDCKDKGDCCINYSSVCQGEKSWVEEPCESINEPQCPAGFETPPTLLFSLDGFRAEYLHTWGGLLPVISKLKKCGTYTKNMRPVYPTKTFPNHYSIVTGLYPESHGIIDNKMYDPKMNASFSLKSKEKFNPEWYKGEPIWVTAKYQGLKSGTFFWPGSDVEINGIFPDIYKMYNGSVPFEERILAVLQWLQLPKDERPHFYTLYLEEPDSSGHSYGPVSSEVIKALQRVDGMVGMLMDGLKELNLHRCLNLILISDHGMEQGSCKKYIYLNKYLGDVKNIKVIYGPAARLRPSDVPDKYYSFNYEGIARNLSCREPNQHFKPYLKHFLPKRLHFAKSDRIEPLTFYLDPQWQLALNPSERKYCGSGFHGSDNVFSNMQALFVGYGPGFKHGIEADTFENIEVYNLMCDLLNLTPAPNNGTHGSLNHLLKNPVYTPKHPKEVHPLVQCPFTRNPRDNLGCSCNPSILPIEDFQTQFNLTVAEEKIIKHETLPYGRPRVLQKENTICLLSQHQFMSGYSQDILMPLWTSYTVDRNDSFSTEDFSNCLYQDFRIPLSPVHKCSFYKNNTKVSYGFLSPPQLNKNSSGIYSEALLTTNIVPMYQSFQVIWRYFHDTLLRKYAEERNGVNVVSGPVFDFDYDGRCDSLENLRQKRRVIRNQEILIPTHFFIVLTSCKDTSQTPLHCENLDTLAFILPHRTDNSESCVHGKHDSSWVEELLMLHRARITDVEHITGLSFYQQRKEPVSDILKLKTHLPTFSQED
As to the kind of experiment: Indirect quantitation of 2',3'-cGAMP hydrolysis (AMP-Glo Assay kit). The class given is biochemical. The following applies: cGAMP substrate; Ki from IC50 by Cheng-Prusoff; read-out: ENPP1 Inhibition -cGAMP: Ki.

For the compound `COc1ccc2c(Oc3ccc(C(=O)O)c(OC)c3)ccnc2c1` [Example 347, 2-methoxy-4-((7-methoxyquinolin-4-yl)oxy)benzoic acid], the pKi was 6.00 to 7.00. The same measure for `COc1ccc2c(-c3ccc(CNS(N)(=O)=O)cc3)coc2c1` [Example 348, N-(4-(6-methoxybenzofuran-3-yl)benzyl) sulfamide]: 6.00 to 7.00; for `COc1cnc2c(Oc3ccc(NS(N)(=O)=O)cc3)ccnc2c1` [Example 349, N-(4-((7-methoxy-1,5-naphthyridin-4-yl)oxy)phenyl) sulfamide]: < 6.00; for `COc1ccc2nccc(-c3ccc4c(c3)CN(S(N)(=O)=O)CC4)c2c1` [Example 358, 7-(6-methoxyquinolin-4-yl)-3,4-dihydroisoquinoline-2(1H)-sulfonamide]: > 7.00. The same measure for `COc1ccc2c(-c3ccc4c(c3)CCN(S(N)(=O)=O)C4)ccnc2c1` [Example 366, 6-(7-methoxyquinolin-4-yl)-3,4-dihydroisoquinoline-2(1H)-sulfonamide]: < 6.00. As for `COc1cnc2c(-c3ccc(CNS(N)(=O)=O)cc3)ccnc2c1` [Example 369, N-(4-(7-methoxy-1,5-naphthyridin-4-yl)benzyl)sulfamide], the negative logarithm of the Ki (pKi) was < 6.00. As for `COc1ccc2c(-c3ccc(CNS(N)(=O)=O)cc3OC)ccnc2c1` [Example 383, N-(3-methoxy-4-(7-methoxyquinolin-4-yl)benzyl)sulfamide], the negative-log Ki (pKi) is < 6.00.

`COc1ccc2c(N3CCc4ccc(NS(N)(=O)=O)cc43)ccnc2c1` [Example 391, N-(1-(7-methoxyquinolin-4-yl)indolin-6-yl)sulfamide]: the pKi is < 6.00. As for `COc1ccc2c(c1)OCCC2Oc1ccc(NS(N)(=O)=O)cc1` (stereo not drawn) [Example 399, (4-((7-methoxychroman-4-yl)oxy)phenyl)sulfamide], the pKi was < 6.00. The same measure for `COc1ccc2c(=O)n(Cc3ccc(S(N)(=O)=O)cc3)cnc2c1` [Example 400, 4-((7-methoxy-4-oxoquinazolin-3(4H)-yl)methyl)benzenesulfonamide]: < 6.00. Take `COc1ccc2c(c1)OCC(=O)N2Cc1ccc(NS(N)(=O)=O)cc1` [Example 401, N-(4-((7-methoxy-3-oxo-2,3-dihydro-4H-benzo[b][1,4]oxazin-4-yl)methyl)phenyl)sulfamide]: the pKi was < 6.00. As for `COc1ccc2c(c1)OCCN2c1ccc(CNS(N)(=O)=O)cc1` [Example 405, N-(4-(7-methoxy-2,3-dihydro-4H-benzo[b][1,4]oxazin-4-yl)benzyl)sulfamide], the pKi is < 6.00.

For `COc1ccc2c(-c3ccc4c(c3)CN(S(N)(=O)=O)CC4)c(C(F)(F)F)cnc2c1` [Example 408, 7-(7-methoxy-3-(trifluoromethyl)quinolin-4-yl)-3,4-dihydroisoquinoline-2(1H)-sulfonamide], the pKi was 6.00 to 7.00. On to `COc1ccc2c(-c3cc4c(cc3F)CCN(S(N)(=O)=O)C4)ccnc2c1` [Example 409, 6-fluoro-7-(7-methoxyquinolin-4-yl)-3,4-dihydroisoquinoline-2(1H)-sulfamide], for which the negative logarithm of the Ki (pKi) is < 6.00.

As to `COc1cc2c(Oc3ccc(NS(N)(=O)=O)cc3)ccnc2cn1` [Example 411, N-(4-((6-methoxy-1,7-naphthyridin-4-yl)oxy)phenyl)sulfamide], the negative logarithm of the Ki (pKi) was < 6.00. Take `COc1ccc2c(-n3cc(CNS(N)(=O)=O)cn3)ccnc2c1` [Example 414, N-((1-(7-methoxyquinolin-4-yl)-1H-pyrazol-4-yl)methyl)sulfamide]: the pKi is 6.00 to 7.00.

For the compound `COc1cc2nccc(-c3ccc(CNS(N)(=O)=O)cc3)c2cn1` [Example 415, N-(4-(7-methoxy-1,6-naphthyridin-4-yl)benzyl)sulfamide], the pKi is 6.00 to 7.00.

Turning to `COc1ccc2c(Oc3ccc(NS(N)(=O)=O)c(OC)c3)ccnc2n1` [Example 421, N-(2-methoxy-4-((7-methoxy-1,8-naphthyridin-4-yl)oxy)phenyl)sulfamide], the negative logarithm of the Ki (pKi) is > 7.00.

Usually pKi stands for the Ki on a negative log10 scale, so that one unit is a factor of ten.
